From BindingDB's records for doi:10.1016/j.chembiol.2016.06.017 (Universitätsklinikum Frankfurt, 2016) come the findings set out here.

The target of the assay is T1, 3-phosphoinositide-dependent protein kinase 1 [50-359] (Homo sapiens, UniProt O15530).
T1 construct: 50-359
T1 sequence (O15530 whole entry): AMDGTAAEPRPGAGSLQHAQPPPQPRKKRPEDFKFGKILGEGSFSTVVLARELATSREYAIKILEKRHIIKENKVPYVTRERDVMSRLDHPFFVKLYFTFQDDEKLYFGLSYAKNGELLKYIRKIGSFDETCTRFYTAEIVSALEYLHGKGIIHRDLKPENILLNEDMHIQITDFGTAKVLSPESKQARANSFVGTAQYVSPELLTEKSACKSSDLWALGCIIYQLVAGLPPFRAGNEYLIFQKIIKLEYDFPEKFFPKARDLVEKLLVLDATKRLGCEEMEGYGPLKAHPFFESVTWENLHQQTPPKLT
Briefly: Isothermal titration calorimetry. The following applies: pH 7.4. As for the experimental part:
For the titrations of PDK1 with adenosine, the protein and the compound were prepared in 50 mMTris-HCl (pH 7.4), 200 mM NaCl, 1 mM DTT and 1% v/v DMSO. For the titration of PDK1 with PS653 theprotein and the compound were prepared in 50 mM Tris-HCl (pH 7.4), 200 mM NaCl, 1 mM DTT and 5% v/vDMSO. […] The titrationof PDK1 with adenosine was performed at 25 C, and the titration of PDK1 with PS653 was made at 37 C. Rawcalorimetric data were corrected for heats of dilution. Binding stoichiometries, enthalpy values and Kd valueswere determined by fitting corrected data to
On the technique in general: ITC needs no label: the signal is the heat of the interaction.

The Kd is a measure of binding affinity in units of concentration. Low readings indicate higher affinity, high ones lower affinity. `O=C1c2ccccc2-c2n[nH]c3cccc1c23` [SP-600125] showed a Kd of 1.25 µM.
